The values below come from patent US10920238B2, “Winter aconite fatty acid elongase and uses thereof in the production of fatty acids” (National Research Council of Canada, priority 2016, dated 2021).

For the first assay, the system named is EhELO1. The assay is described as follows: Elongation efficiency on fatty acid substrates by EhELO1 expressed in Saccharomyces cerevisiae (in vivo activity assay). Format: cell-based, Eranthis hyemalis. The settings on record: yeast INVSc1 transformant with EhELO1/pHVX2; 0.25 mM free fatty acid substrate with tergitol, 20° C. for 2 days; calculated from peak area of FAMEs; means of four replicates with standard deviation. On the procedure:
To define the diverse activity of the discovered elongase (EhELO1) from winter aconite, a variety of possible common fatty acids and unusual fatty acids that differ in the number and position of double bonds as well as in the chain length was exogenously supplied to the yeast transformant expressing the elongase EhELO1 for in vivo activity assays. The conversion of substrates to products was measured and used for the comparison of elongation efficiencies among fatty acid substrates.
The EhELO1 coding sequence was released from plasmid, EhELO1/pYES2.1 and sub-cloned into another yeast expression vector pHVX2 under the control of phosphoglycerate kinase 1 constitutive promoter, giving a plasmid EhELO1/pHVX2. The recombinant plasmid was transformed into Saccharomyces cerevisiae INVSc1. The yeast transformants with either EhELO1 or empty vector pHVX2 were grown at 30° C. for 1 day. The overnight cultures were diluted to an OD600 of 0.1 in the same medium supplemented with or without 0.25 mM of various free fatty acids in the presence of tergitol. After incubation at 20° C. for 2 days, yeast cells were harvested and washed once with tergitol and once with water. Total fatty acids in yeast transformants were converted to FAMES by an acid transmethylation process and analyzed by gas chromatography.
On to `CCCCCCCC/C=C\CCCCCCCC(=O)O` [18:1-9], for which the “Elongation efficiency (%)” value is on record as 3.3 ± 0.07%. Still for that read-out and setting: next, `CCCCCC/C=C\CCCCCCCCCC(=O)O` [18:1-11]: 49.4 ± 1.79%. On the same count and under the same terms, next, `CCCCC/C=C\C/C=C\CCCCCCCC(=O)O` [18:2-9, 12, linoleic acid]: 44.6 ± 3.26%. Turning to `CCCCC/C=C\C/C=C\C/C=C\CCCCC(=O)O` [18:3-6,9, 12, γ-linolenic acid], the “Elongation efficiency (%)” value is 28.3 ± 1.95%. Same read-out and setting: the result for `CC/C=C\C/C=C\C/C=C\CCCCCCCC(=O)O` [18:3-9, 12, 15, linolenic acid] reads 54.7 ± 0.83%; that for `CC/C=C\C/C=C\C/C=C\C/C=C\CCCCC(=O)O` [18:4-6,9, 12, 15], 25.0 ± 0.37%. On to `CCCCCCCCC=CCCCCCCCCCC(=O)O` [20:1-11], for which the “Elongation efficiency (%)” value was 12.6 ± 0.23%. Turning to `CCCCC/C=C\C/C=C\CCCCCCCCCC(=O)O` [20:2-11, 14, eicosadienoic acid], the “Elongation efficiency (%)” value was 48.5 ± 2.12%.

As to `CCCCC/C=C\C/C=C\C/C=C\CCCCCCC(=O)O` [20:3-8, 11, 14], the “Elongation efficiency (%)” value was 46.4 ± 1.44%. Still for that read-out and setting: next, `CC/C=C\C/C=C\C/C=C\CCCCCCCCCC(=O)O` [20:3-11, 14, 17]: 61.8 ± 0.35%; `CCCCC/C=C\C/C=C\C/C=C\C/C=C\CCCC(=O)O` [20:4-5,8, 11, 14, arachidonic acid]: 36.2 ± 0.92%; `CC/C=C\C/C=C\C/C=C\C/C=C\CCCCCCC(=O)O` [20:4-8, 11, 14, 17]: 50.3 ± 0.53%. In the case of `CC/C=C\C/C=C\C/C=C\C/C=C\C/C=C\CCCC(=O)O` [20:5-5,8, 11, 14, 17, eicosapentaenoic acid], the “Elongation efficiency (%)” value is listed as 39.8 ± 0.43%.

As to `CCCCCCCC/C=C\CCCCCCCCCCCC(=O)O` [22:1-13], the “Elongation efficiency (%)” value was 0.0 ± 0.0%. For the compound `CCCCC/C=C\C/C=C\CCCCCCCCCCCC(=O)O` [22:2-13, 16, docosadienoic acid], the “Elongation efficiency (%)” value was 3.4 ± 0.17%. Still for that read-out and setting: the result for `CC/C=C\C/C=C\C/C=C\CCCCCCCCCCCC(=O)O` [22:3-13, 16, 19, docosatrienoic acid] reads 9.7 ± 0.13%; that for `CCCCC/C=C\C/C=C\C/C=C\C/C=C\CCCCCC(=O)O` [22:4-7, 10, 13, 16], 20.5 ± 0.37%; that for `CCC=CCC=CCC=CCC=CCCCCCCCCC(=O)O` [22:4-10, 13, 16, 19], 32.7 ± 0.49%. Same read-out and setting: next, `CC/C=C\C/C=C\C/C=C\C/C=C\C/C=C\CCCCCC(=O)O` [22:5-7, 10, 13, 16, 19]: 31.9 ± 0.19%; `CC/C=C\C/C=C\C/C=C\C/C=C\C/C=C\C/C=C\CCC(=O)O` [22:6-4,7, 10, 13, 16, 19, docosahexaenoic acid]: 10.8 ± 0.52%.

The same assay, now with this note: yeast transformant expressing EhELO1, comparison among supplied substrates.
`CCCCCC/C=C\CCCCCCCCCC(=O)O` [18:1-11]: the “Substrate preference of EhELO1 (in words)” value was “highly active”. Take `CC/C=C\C/C=C\C/C=C\CCCCCCCCCC(=O)O` [20:3-11, 14, 17]: the “Substrate preference of EhELO1 (in words)” value was “most preferred”.

The next assay deals with CtELO6. The assay is described as follows: Elongation of fatty acid by elongase CtELO6 studied in yeast, Saccharomyces cerevisiae.
Conditions: not given
In kind it is cell-based, Conidiobolus thromboides. The text has this:
Accordingly, it is expected that the production of 20:2:11,14 by CtELO6 in plants may provide increased substrate for EhELO1, providing enhanced production of DDA in plants expressing both CtELO6 and EhELO1.
For the compound `CCCCC/C=C\C/C=C\CCCCCCCC(=O)O` [18:2-9, 12, linoleic acid], the elongation efficiency result was “more than 20%”.
